Experimental data published in patent US20240415819A1, “MACROCYCLIC COMPOUNDS AS PROTEASOME SUBUNIT BETA TYPE-5 INHIBITORS” (Lead Discovery Center GmbH, priority 2021, published 2024).
Where two headings read alike, the source gives them in different places.

Key:
[1] = molecular target: T1, β5 subunit of the human constitutive proteasome (CPS) (Homo sapiens, UniProt P28074); test: β5 inhibition assay, human constitutive proteasome (Suc-LLVY-AMC); format: biochemical; conditions: IC50 class, Suc-LLVY-AMC substrate
T1 construct: purchased Boston Biochem E-360
Procedure: The enzymatic activity of the β5 subunit of the human constitutive proteasome (CPS) is analyzed. In another assay, which differs from the assay of the human constitutive proteasome only in using the human immunoproteasome (IPS) the enzymatic activity of the β5 subunit of the human immunoproteasome (IPS) is analyzed. […] Inhibition is indicated as IC50 [nM] (“-”=not measured).

[2] = tested on: HT-29 cells; test: CellTiter-Glo luminescent cell viability assay with HT-29 cells (72h incubation); format: cell-based, human; conditions: read-out: CTG HT29
Outline: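 Viability read as CellTiter-Glo luminescence after 72 h compound exposure, with 10 μM staurosporine and DMSO as control wells. Seeding 400 cells per well, compound added 24 h post-plating; IC50 from curve fitting.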

[3] = tested on: hPMBC; test: Chymotrypsin-like ProteasomeGlo assay in hPBMC; format: cell-based; conditions: Homo sapiens; read-out: Pglo hPBMC
Text: Chymotrypsin-like ProteasomeGlo assay in the B-cells isolated from PBMC's following compound addition (IC50). • 1. PBMC's will be isolated from human blood followed by B-cell isolation from the PBMC's using the Miltenyi Isolation Kit. • 2. This experiment will use the Chymotrypsin-like ProteasomeGlo read-out to generate IC50's following compound treatment. • 3. Dilute all compounds 1:100 for the assay. • 4. […] Repeat the DMSO transfer with lane 12. • 5. Lane 12 should not be seeded with any cells. Only medium! • 6. For all steps, make sure the samples and reagents remain cool! • 7. While dealing with the buffy coats, be careful to not let any exposed skin to be in direct contact with the blood.
For the initial steps and to make processing the buffy coats easier, separately process the buffy coats. • a. Cut the tube attached to the buffy coats carefully using a clean, sterile and fresh scalpel. • b. Transfer the blood into 2 individual 50 ml falcons. • c. Add an equal volume of DPBS to the blood in the falcons. • d. Add ˜20 ml of lymphocyte separating medium to two 50 ml falcons. • e. Carefully pour 15-20 ml of the blood+DPBS mix from step c. onto the lymphocyte separating medium from step d. • f. Centrifuge the falcons with the lymphocyte separating medium+blood mix at 800×g for 15 minutes using a swing-out rotor. • g. Following centrifugation, carefully remove the falcons from the centrifuge. • h. The following layers will be observed: • i. Aspirate the plasma layer off carefully without disturbing the different layers. • j. Remove the cell pellet using a pipette into two fresh 50 ml falcons. • k. Fill the falcons with the cells up to 50 ml with DPBS. • l. Centrifuge the falcons at 250×g for 10 minutes using a swing-out rotor (Brake-off). • m. Aspirate the complete DPBS off the cells without disturbing the cell pellet at the bottom of the falcon. • n. Re-suspend the cell pellet in 10 ml of 1×RBC lysis buffer. • o. Incubate the falcons at room temperature in the dark for 10 minutes. • p. After RBC lysis, centrifuge the tubes at 250×g for 10 minutes using a swing-out rotor (brake-off). • (*Note: If the cell pellet is still red or light red, repeat steps n. to p.!) • q. Re-suspend the cell pellet in DPBS up to 50 ml in the falcon. • r. Centrifuge the falcons at 250×g for 10 minutes using a swing-out rotor (Brake-off). • s. Aspirate the DPBS off the cells without disturbing the cell pellet at the bottom of the falcon. • t. Repeat the wash step as described in steps q. to s. 2× times more (total number of washes is 3×). • u. Aspirate the DPBS completely off the cell pellet after the last wash without disturbing the cell pellet. • v. Re-suspend the cell pellet in 20 ml of PBMC cell medium. • w.
• a. Remove the plates with cells from the incubator. • b. Take all the plates including the compound plate, intermediate plate and Staurosporine plate to the ECHO. • c. Click on “Open” in the ECHO software and select the protocol “QLI5_25ul_30 uM-Grenier”. • d. Follow the on-screen prompts and instructions once you click “Start” to insert the compound plate, intermediate plate and destination plates. • e. Change the final number of destination plates on the program. • f. Follow the on-screen prompts and instructions once you click “Start” to load the Staurosporine and destination plates. • g. Once all the compounds, DMSO and Staurosporine have been transferred, place the destination plates in a wet tissue box. • h. Place the destination plates back into the incubator and incubate at 37° C., 5% CO2 for 105 minutes. • i. Re-seal all the compound+Stauro diamond and intermediate plates and store in the dark. Chymotrypsin like ProteasomeGlo Assay • 1. Thaw the components of the ProteasomeGlo assay at room temperature including the ProteasomeGlo Buffer, the lyophilized Luciferin Detection Reagent and the Suc-LLVY-Glo Substrate. • 2. […]

[4] = Homo sapiens, HT-29, HT29 cells

| SMILES | IC50 [1] [nM] | IC50 [2, 4] [nM] | IC50 [3] [nM] | IC50 ([2]; HT29 cells) [nM] |
| --- | --- | --- | --- | --- |
| Cc1ccc2cc1CNC(=O)[C@H](CCc1ccccc1)NC(=O)[C@@H](NC(=O)OCc1ccccc1)CCC(=O)N1CCCC3(CC(C3)O2)C1 [Compound 301, benzyl ((7S,10S)-3^4-methyl-6,9,13-trioxo-7-phenethyl-2-oxa-5,8-diaza-14(3,1)-piperidina-3(1,3)-benzena-1(1,3)-cyclobutanatetradecaphane-10-yl)carbamate] | 1000 to 5000 | 100 to 500 | 1000 to 5000 | – |
| CC(=O)N[C@H]1CCC(=O)N2CC3CC(Oc4ccc(C)c(c4)CNC(=O)[C@H](CCc4ccccc4)NC1=O)C3C2 (stereo partly drawn) [Compound 299, N-(3^4-methyl-6,9,13-trioxo-7-phenethyl-2-oxa-13,5,8-triaza-1(6,3)-bicyclo[3.2.0]heptana-3(1,3)-benzenacyclotridecaphane-10-yl)acetamide] | > 5000 | 100 to 500 | 1000 to 5000 | – |
| CC(=O)N[C@H]1CC(=O)N2CCCC(CCOc3ccc(C)c(c3)CNC(=O)C(CCc3cccnc3)NC1=O)C2 (stereo partly drawn) [Compound 549, N-((12S)-5^4-methyl-8,11,14-trioxo-9-(2-(pyridin-3-yl)ethyl)-4-oxa-7,10-diaza-1(3,1)-piperidina-5(1,3)-benzenacyclotetradecaphane-12-yl)acetamide] | < 100 | < 100 | < 100 | – |
| Cc1ccc2cc1CNC(=O)[C@H](CCc1ccccc1)NC(=O)[C@@H](Nc1ncccn1)CC(=O)N1CCCC(CCO2)C1 (stereo partly drawn) [Compound 34, (9S,12S)-5^4-methyl-9-phenethyl-12-(pyrimidin-2-ylamino)-4-oxa-7,10-diaza-1(3,1)] | < 100 | < 100 | – | – |
| Cc1ccc2cc1CNC(=O)[C@H](CCc1ccccc1)NC(=O)[C@@H](NC(=O)OCc1ccccc1)CCCCC(=O)NCCCCO2 [Compound 347, benzyl ((13S,16S)-1^4-methyl-8,14,17-trioxo-16-phenethyl-2-oxa-7,15,18-triaza-1(1,3)-benzenacyclononadecaphane-13-yl)carbamate] | < 100 | < 100 | < 100 | – |
| Cc1ccc2cc1CNC(=O)[C@H](CCc1ccccc1)NC(=O)[C@@H](NC1COC1)CC(=O)N1CCCC(CCO2)C1 (stereo partly drawn) [Compound 35, (9S,12S)-5^4-methyl-12-(oxetan-3-ylamino)-9-phenethyl-4-oxa-7,10-diaza-1(3,1)-piperidina-5(1,3)-benzenacyclotetradecaphane-8,11,14-trione] | < 100 | 100 to 500 | – | – |
| Cc1ccc2cc1CNC(=O)C(CCc1ccccc1)NC(=O)C(NC(=O)CCc1ccccc1)CC(=O)N1CCCC(CCO2)C1 [Compound 30, N-((9S,12S)-5^4-methyl-8,11,14-trioxo-9-phenethyl-4-oxa-7,10-diaza-1(3,1)-piperidina-5(1,3)-benzenacyclotetradecaphane-12-yl)-3-phenylpropanamide] | < 100 | – | – | < 100 |
| Cc1ccc2cc1CNC(=O)[C@H](CCc1ccccc1)NC(=O)[C@@H](NC(=O)Cc1ccccc1)CC(=O)N1CCCC(CCO2)C1 (stereo partly drawn) [Compound 29, N-((9S,12S)-5^4-methyl-8,11,14-trioxo-9-phenethyl-4-oxa-7,10-diaza-1(3,1)-piperidina-5(1,3)-benzenacyclotetradecaphane-12-yl)-2-phenylacetamide] | < 100 | < 100 | – | – |

Other lines, results leading:

| IC50 [1] [nM] | IC50 [2, 4] [nM] | IC50 [3] [nM] | IC50 ([2]; HT29 cells) [nM] | SMILES |
| --- | --- | --- | --- | --- |
| < 100 | < 100 | < 100 | – | COC(=O)N(CC1NC(=O)[C@@H](NC(C)=O)CC(=O)N2CCCC(CCOc3ccc(C)c(c3)CNC1=O)C2)c1ccccc1 (stereo partly drawn) [Compound 560, methyl (((12S)-12-acetamido-5^4-methyl-8,11,14-trioxo-4-oxa-7,10-diaza-1(3,1)-piperidina-5(1,3)-benzenacyclotetradecaphane-9-yl)methyl)(phenyl)carbamate] |
| < 100 | < 100 | < 100 | – | Cc1nc(C2NC(=O)[C@@H](NC(=O)OCc3ccccc3)CC(=O)N3CCCC(CCOc4ccc(C)c(c4)CNC2=O)C3)co1 (stereo partly drawn) [Compound 512, benzyl ((12S)-5^4-methyl-9-(2-methyloxazol-4-yl)-8,11,14-trioxo-4-oxa-7,10-diaza-1(3,1)-piperidina-5(1,3)-benzenacyclotetradecaphane-12-yl)carbamate] |
| < 100 | 100 to 500 | < 100 | – | Cc1ccc2cc1CNC(=O)[C@H](CCc1ccccc1)NC(=O)[C@@H](NC(=O)OCc1ccccc1)CCC(=O)N1CCC(CO2)C1 (stereo partly drawn) [Compound 349, benzyl ((8S,11S)-4^4-methyl-7,10,14-trioxo-8-phenethyl-3-oxa-6,9-diaza-1(3,1)-pyrrolidina-4(1,3)-benzenacyclotetradecaphane-11-yl)carbamate] |
| < 100 | < 100 | – | – | Cc1ccc2cc1CNC(=O)[C@H](CCc1ccccc1)NC(=O)[C@@H](NC(=O)c1ncccn1)CC(=O)N1CCCC(CCO2)C1 (stereo partly drawn) [Compound 32, N-((9S,12S)-5^4-methyl-8,11,14-trioxo-9-phenethyl-4-oxa-7,10-diaza-1(3,1)-piperidina-5(1,3)-benzenacyclotetradecaphane-12-yl)pyrimidine-2-carboxamide] |
| < 100 | < 100 | – | – | CC(=O)N[C@H]1CC(=O)N2CCCC(CCOc3ccc(C)c(c3)CNC(=O)[C@H](CCc3ccccc3)NC1=O)C2 (stereo partly drawn) [Compound 33, N-((9S,12S)-5^4-methyl-8,11,14-trioxo-9-phenethyl-4-oxa-7,10-diaza-1(3,1)-piperidina-5(1,3)-benzenacyclotetradecaphane-12-yl)acetamide] |
| < 100 | – | < 100 | – | Cc1ccc2cc1CNC(=O)[C@H](CCc1ccccc1)NC(=O)[C@@H](NC(=O)Cc1ccccc1C)CC(=O)N1CCCC(CCO2)C1 (stereo partly drawn) [Compound 373, N-((9S,12S)-5^4-methyl-8,11,14-trioxo-9-phenethyl-4-oxa-7,10-diaza-1(3,1)-piperidina-5(1,3)-benzenacyclotetradecaphane-12-yl)-2-(o-tolyl)acetamide] |
| < 100 | < 100 | – | – | Cc1ccc2cc1CNC(=O)[C@H](CCc1ccccc1)NC(=O)[C@@H](NC(=O)c1nc3ccccc3[nH]1)CC(=O)N1CCCC(CCO2)C1 (stereo partly drawn) [Compound 31, N-((9S,12S)-5^4-methyl-8,11,14-trioxo-9-phenethyl-4-oxa-7,10-diaza-1(3,1)-piperidina-5(1,3)-benzenacyclotetradecaphane-12-yl)-1H-benzo[d] imidazole-2-carboxamide] |
| < 100 | < 100 | – | – | Cc1ccc2cc1CNC(=O)[C@H](CCc1ccccc1)NC(=O)[C@@H](NC(=O)C(C)(C)C)CC(=O)N1CCCC(CCO2)C1 (stereo partly drawn) [Compound 27, N-((9S,12S)-5^4-methyl-8,11,14-trioxo-9-phenethyl-4-oxa-7,10-diaza-1(3,1)-piperidina-5(1,3)-benzenacyclotetradecaphane-12-yl)pivalamide] |
